From publication PMC9490060, “Synthesis and evaluation of anticancer activity of quillaic acid derivatives: A cell cycle arrest and apoptosis inducer through NF-κB and MAPK pathways” (Frontiers in Chemistry, 2022)

Legend:
[1] = system: HCT116 (human colorectal cancer cell line); experiment: MTT anti-proliferative assay, HCT116; assay type: cell-based; details: Homo sapiens, HCT-116, 48 h incubation, means ± SD, n = 3
From the text: (§1) The anti-proliferative activities against five human cancer cell lines, including HCT116 (human colorectal cancer cell line), MCF-7 (human breast cancer cell line), SW620 (human colorectal cancer cell line), BEL7402 (human hepatocellular carcinoma cell line), and HepG2 (human hepatocellular carcinoma cell line) were established for all the target compounds using the MTT assay.
(§2) The propidium iodide (PI) and Annexin V-FITC apoptosis detection kit were purchased from Invitrogen (Eugene, OR, United States). 3-(4,5-Dimethylthiazol-2-yl)-2,5-diphenyl-2H-tetrazolium bromide (MTT) was purchased from Sigma-Aldrich Co. (St. Louis, MO, United States). All human cell lines were used in this study, colorectal cancer cell HCT116, colorectal cancer cell SW620, breast cancer cell MCF-7, liver hepatocellular carcinoma cell BEL7402, liver hepatocellular carcinoma HepG2 and normal liver cell L02 were initially purchased from American Type Culture Collection (ATCC, Manassas, VA, United States). RPMI-1640 media, Dulbecco’s modified Eagle’s medium (DMEM), and foetal bovine serum (FBS) were provided from Gibco Company (Grand Island, NY, United States). Cell line MCF-7 and HepG2 were cultivated in DMEM containing 10% (v/v) heat-inactivated FBS, 100 units/ml penicillin and […] streptomycin (Grand Island, NY, United States). Cell lines HCT116, BEL7402, SW620, and L02 were cultivated in RPMI 1640 medium containing 10% (v/v) heat-inactivated FBS, 100 units/ml penicillin, and […] streptomycin. The cells were incubated at 37°C under a 5% CO2 and 90% relative humidity (RH) atmosphere.
(§3) Stock solutions were prepared by diluting target compounds in DMSO at concentrations (1.25, 2.5, 5, and 10 mM). The stock solution was then diluted (1.25, 2.5, 5, and 10 μM) with culture medium, and the concentration of DMSO was controlled not to exceed 0.1%.
(§4) Place the cells in a 96-well plate at an appropriate density to ensure exponential growth (1 × 10^4–1.2×10^4 cells per well) throughout the experiment, and then allow the cells to adhere for 24 h. The cells were then treated with continuous concentrations of each compound (1.25, 2.5, 5, and 10 μM) for 48 h. After 48 h of incubation, 15 μl of MTT solution was added to each well, and the final concentration was 2 mg/ml. Then incubate for another 4 h. After incubation, remove the MTT solution and add […] of DMSO to each well for staining. Shake vigorously for 10 min at room temperature to ensure complete dissolution. The optical density (OD) was read on a microplate reader (ELx 800, BioTek, Highland Park, Winooski, VT, United States) with a wavelength of 492 nm, and then the data was analyzed.

[2] = system: SW620 (human colorectal cancer cell line); experiment: MTT anti-proliferative assay, SW620; assay type: cell-based; details: Homo sapiens, SW-620, 48 h incubation, means ± SD, n = 3
From the text: as §1, §2, §3, §4

[3] = system: BEL7402 (human hepatocellular carcinoma cell line); experiment: MTT anti-proliferative assay, BEL7402; assay type: cell-based; details: Homo sapiens, Bel-7402, 48 h incubation, means ± SD, n = 3
From the text: as §1, §2, §3, §4

[4] = system: HepG2 (human hepatocellular carcinoma cell line); experiment: MTT anti-proliferative assay, HepG2; assay type: cell-based; details: Homo sapiens, HepG2, 48 h incubation, means ± SD, n = 3
From the text: as §1, §2, §3, §4

[5] = system: MCF-7 (human breast cancer cell line); experiment: MTT anti-proliferative assay, MCF-7; assay type: cell-based; details: Homo sapiens, MCF7, 48 h incubation, means ± SD, n = 3
From the text: as §1, §2, §3, §4

Row | IC50 [1] [µM] | IC50 [2] [µM] | IC50 [3] [µM] | IC50 [4] [µM] | IC50 [5] [µM] | melting point [°C] | Structure (SMILES)
1 | 3.61 ± 1.01 | 8.96 ± 1.78 | > 10 | 8.28 ± 2.1 | > 10 | 186 to 188 | CC1(C)CC[C@]2(C(=O)OCc3cn(-c4ccccc4)nn3)[C@H](O)C[C@]3(C)C(=CC[C@@H]4[C@@]5(C)CC[C@H](O)[C@@](C)(C=O)[C@@H]5CC[C@]43C)[C@@H]2C1 [Compound A1, (1-phenyl-1H-1,2,3-triazol-4-yl)methyl (4aR,5R,6aS,6bR,8aR,9S,10S,12aR,12bR,14bS)-9-formyl-5,10-dihydroxy-2,2,6a,6b,9,12a-hexamethyl-1,3,4,5,6,6a,6b,7,8,8a,9,10,11,12,12a,12b,13,14b-octadecahydropicene-4a (2H)-carboxylate]
2 | 3.04 ± 0.92 | 8.78 ± 1.77 | 3.18 ± 1.02 | > 10 | > 10 | 171 to 172 | CC1(C)CC[C@]2(C(=O)OCc3cn(-c4ccc(F)cc4)nn3)[C@H](O)C[C@]3(C)C(=CC[C@@H]4[C@@]5(C)CC[C@H](O)[C@@](C)(C=O)[C@@H]5CC[C@]43C)[C@@H]2C1 [Compound A2, (1-(4-fluorophenyl)-1H-1,2,3-triazol-4-yl)methyl (4aR,5R,6aS,6bR,8aR,9S,10S,12aR,12bR,14bS)-9-formyl-5,10-dihydroxy-2,2,6a,6b,9,12a-hexamethyl-1,3,4,5,6,6a,6b,7,8,8a,9,10,11,12,12a,12b,13,14b-octadecahydropicene-4a (2H)-carboxylate]
3 | > 10 | > 10 | > 10 | > 10 | > 10 | 193 to 194 | CC1(C)CC[C@]2(C(=O)OCc3cn(-c4ccc(Cl)cc4)nn3)[C@H](O)C[C@]3(C)C(=CC[C@@H]4[C@@]5(C)CC[C@H](O)[C@@](C)(C=O)[C@@H]5CC[C@]43C)[C@@H]2C1 [Compound A3, (1-(4-chlorophenyl)-1H-1,2,3-triazol-4-yl)methyl (4aR,5R,6aS,6bR,8aR,9S,10S,12aR,12bR,14bS)-9-formyl-5,10-dihydroxy-2,2,6a,6b,9,12a-hexamethyl-1,3,4,5,6,6a,6b,7,8,8a,9,10,11,12,12a,12b,13,14b-octadecahydropicene-4a (2H)-carboxylate]
4 | > 10 | > 10 | > 10 | > 10 | > 10 | 205 to 206 | CC1(C)CC[C@]2(C(=O)OCc3cn(-c4ccc(Cl)c(Cl)c4)nn3)[C@H](O)C[C@]3(C)C(=CC[C@@H]4[C@@]5(C)CC[C@H](O)[C@@](C)(C=O)[C@@H]5CC[C@]43C)[C@@H]2C1 [Compound A4, (1-(3,4-dichlorophenyl)-1H-1,2,3-triazol-4-yl)methyl (4aR,5R,6aS,6bR,8aR,9S,10S,12aR,12bR,14bS)-9-formyl-5,10-dihydroxy-2,2,6a,6b,9,12a-hexamethyl-1,3,4,5,6,6a,6b,7,8,8a,9,10,11,12,12a,12b,13,14b-octadecahydropicene-4a (2H)-carboxylate]
5 | > 10 | > 10 | > 10 | > 10 | > 10 | 190 to 192 | CC1(C)CC[C@]2(C(=O)OCc3cn(-c4ccc(Br)cc4)nn3)[C@H](O)C[C@]3(C)C(=CC[C@@H]4[C@@]5(C)CC[C@H](O)[C@@](C)(C=O)[C@@H]5CC[C@]43C)[C@@H]2C1 [Compound A5, (1-(4-bromophenyl)-1H-1,2,3-triazol-4-yl)methyl (4aR,5R,6aS,6bR,8aR,9S,10S,12aR,12bR,14bS)-9-formyl-5,10-dihydroxy-2,2,6a,6b,9,12a-hexamethyl-1,3,4,5,6,6a,6b,7,8,8a,9,10,11,12,12a,12b,13,14b-octadecahydropicene-4a (2H)-carboxylate]
6 | > 10 | > 10 | > 10 | > 10 | > 10 | 192 to 193 | COc1ccc(-n2cc(COC(=O)[C@]34CCC(C)(C)C[C@H]3C3=CC[C@@H]5[C@@]6(C)CC[C@H](O)[C@@](C)(C=O)[C@@H]6CC[C@@]5(C)[C@]3(C)C[C@H]4O)nn2)cc1 [Compound A6, (1-(4-methoxyphenyl)-1H-1,2,3-triazol-4-yl)methyl (4aR,5R,6aS,6bR,8aR,9S,10S,12aR,12bR,14bS)-9-formyl-5,10-dihydroxy-2,2,6a,6b,9,12a-hexamethyl-1,3,4,5,6,6a,6b,7,8,8a,9,10,11,12,12a,12b,13,14b-octadecahydropicene-4a (2H)-carboxylate]
7 | > 10 | > 10 | > 10 | > 10 | > 10 |  | COc1ccc(-n2cc(COC(=O)[C@]34CCC(C)(C)C[C@H]3C3=CC[C@@H]5[C@@]6(C)CC[C@H](O)[C@@](C)(C=O)[C@@H]6CC[C@@]5(C)[C@]3(C)C[C@H]4O)nn2)cc1OC [Compound A7, (1-(3,4-dimethoxyphenyl)-1H-1,2,3-triazol-4-yl)methyl (4aR,5R,6aS,6bR,8aR,9S,10S,12aR,12bR,14bS)-9-formyl-5,10-dihydroxy-2,2,6a,6b,9,12a-hexamethyl-1,3,4,5,6,6a,6b,7,8,8a,9,10,11,12,12a,12b,13,14b-octadecahydropicene-4a (2H)-carboxylate]
8 | > 10 | > 10 | > 10 | > 10 | > 10 |  | COc1cc(-n2cc(COC(=O)[C@]34CCC(C)(C)C[C@H]3C3=CC[C@@H]5[C@@]6(C)CC[C@H](O)[C@@](C)(C=O)[C@@H]6CC[C@@]5(C)[C@]3(C)C[C@H]4O)nn2)cc(OC)c1OC [Compound A8, (1-(3,4,5-trimethoxyphenyl)-1H-1,2,3-triazol-4-yl)methyl (4aR,5R,6aS,6bR,8aR,9S,10S,12aR,12bR,14bS)-9-formyl-5,10-dihydroxy 2,2,6a,6b,9,12a-hexamethyl-1,3,4,5,6,6a,6b,7,8,8a,9,10,11,12,12a,12b,13,14b octadecahydropicene-4a (2H)-carboxylate]
9 | 5.6 ± 1.55 | 7.35 ± 1.7 | > 10 | > 10 | > 10 |  | COc1cc(-n2cnn(CCOC(=O)[C@]34CCC(C)(C)C[C@H]3C3=CC[C@@H]5[C@@]6(C)CC[C@H](O)[C@@](C)(C=O)[C@@H]6CC[C@@]5(C)[C@]3(C)C[C@H]4O)c2=O)cc(OC)c1OC [Compound C6, 2-(5-oxo-4-(3,4,5-trimethoxyphenyl)-4,5-dihydro-1H-1,2,4-triazol-1-yl)ethyl (4aR,5R,6aS,6bR,8aR,9S,10S,12aR,12bR,14bS)-9-formyl-5,10-dihydroxy-2,2,6a,6b,9,12a-hexamethyl-1,3,4,5,6,6a,6b,7,8,8a,9,10,11,12,12a,12b,13,14b-octadecahydropicene-4a (2H)-carboxylate]
10 | > 10 | > 10 | > 10 | > 10 | > 10 |  | CC1(C)CC[C@]2(C(=O)O)[C@H](O)C[C@]3(C)C(=CC[C@@H]4[C@@]5(C)CC[C@H](O)[C@@](C)(C=O)[C@@H]5CC[C@]43C)[C@@H]2C1 [QA, quillaic acid]
